Source: ChEMBL document CHEMBL3044789, “Comparing weed and crop seedling response to pre-emergence pendimethalin application in Corchorus olitorius and Abelmoschus esculentus” (Crop Prot, 2006)

Assays:
Ageratum conyzoides [1] = assay: Herbicidal activity against Ageratum conyzoides in Abelmoschus esculentus plots assessed as weed cover at 1.32 kg a.i/ha after 4 weeks (reference value: 22.6 +/- 0.49 %); format: functional
Synedrella nodiflora [2] = assay: Herbicidal activity against Synedrella nodiflora in Abelmoschus esculentus plots assessed as weed cover at 0.33 kg a.i/ha after 4 weeks (reference value: 22.6 +/- 0.49 %); format: functional
Talinum fruticosum [3] = assay: Herbicidal activity against Talinum fruticosum in Abelmoschus esculentus plots assessed as minor weed growth at 0.99 kg a.i/ha after 2 weeks; format: functional
Synedrella nodiflora [4] = assay: Herbicidal activity against Synedrella nodiflora form in Abelmoschus esculentus plots assessed as minor weed growth at 0.66 kg a.i/ha after 2 weeks; format: functional
Synedrella nodiflora [5] = assay: Herbicidal activity against Synedrella nodiflora in Corchorus olitorius plots assessed as minor weed growth at 0.66 kg a.i/ha after 2 weeks; format: functional
Euphorbia heterophylla [6] = assay: Herbicidal activity against Euphorbia heterophylla in Abelmoschus esculentus plots assessed as weed cover at 0.99 kg a.i/ha after 7 weeks (reference value: 14.7 +/- 0.46 %); format: functional
Synedrella nodiflora [7] = assay: Herbicidal activity against Synedrella nodiflora in Abelmoschus esculentus plots assessed as weed cover at 0.99 kg a.i/ha after 7 weeks (reference value: 14.7 +/- 0.46 %); format: functional
Cyperus rotundus [8] = assay: Herbicidal activity against Cyperus rotundus in Abelmoschus esculentus plots assessed as weed cover at 0.66 kg a.i/ha after 7 weeks (reference value: 14.7 +/- 0.46 %); format: functional
Euphorbia heterophylla [9] = assay: Herbicidal activity against Euphorbia heterophylla in Abelmoschus esculentus plots assessed as weed cover at 1.32 kg a.i/ha after 2 weeks (reference value: 63.5 +/- 0.29 %); format: functional
Ageratum conyzoides [10] = assay: Herbicidal activity against Ageratum conyzoides in Corchorus olitorius plots assessed as weed recovery at 1.32 kg a.i/ha after 2 weeks (reference value: 78.3 +/- 0.74 %); format: functional
Calopogonium mucunoides [11] = assay: Herbicidal activity against Calopogonium mucunoides in Corchorus olitorius plots assessed as weed recovery at 0.99 kg a.i/ha after 2 weeks (reference value: 78.3 +/- 0.74 %); format: functional
Talinum fruticosum [12] = assay: Herbicidal activity against Talinum fruticosum in Corchorus olitorius plots assessed as weed recovery at 0.99 kg a.i/ha after 2 weeks (reference value: 78.3 +/- 0.74 %); format: functional
Corchorus olitorius [13] = assay: Phytotoxicity in Corchorus olitorius assessed as crop seedling injury at 1.32 kg a.i/ha after 2 weeks relative to untreated control; format: organism-based; settings: in vivo, 336 h
Chromolaena odorata = assay: Herbicidal activity against Chromolaena odorata in Corchorus olitorius plots assessed as weed cover at 0.99 kg a.i/ha after 7 weeks (reference value: 1.7 +/- 0.56 %); format: functional
Commelina diffusa = assay: Herbicidal activity against Commelina diffusa in Corchorus olitorius plots assessed as weed cover at 0.66 kg a.i/ha after 7 weeks (reference value: 1.7 +/- 0.56 %); format: functional
Corchorus olitorius [14] = assay: Phytotoxicity in Corchorus olitorius assessed as seedling injury at 0.99 kg a.i/ha applied as solution after 7 weeks relative to control; format: organism-based; settings: in vivo, other, 1176 h
Corchorus olitorius [15] = assay: Phytotoxicity in Corchorus olitorius assessed as shoot length at 1.32 kg a.i/ha applied as solution after 7 weeks (reference value: 22.9 +/- 0.8 mm); format: organism-based; settings: in vivo, other, 1176 h
Corchorus olitorius [16] = assay: Phytotoxicity in Corchorus olitorius assessed as seed germination at 0.66 kg a.i/ha applied as solution after 7 weeks relative to untreated control; format: organism-based; settings: in vivo, other, 1176 h
Corchorus olitorius [17] = assay: Phytotoxicity in Corchorus olitorius assessed as seed germination at 0.33 kg a.i/ha applied as solution after 7 weeks relative to untreated control; format: organism-based; settings: in vivo, other, 1176 h
Corchorus olitorius [18] = assay: Phytotoxicity in Corchorus olitorius assessed as root length at 1.32 kg a.i/ha treated to soil after 7 weeks (reference value: 16.9 +/- 0.09 mm); format: organism-based; settings: in vivo, other, 1176 h
Corchorus olitorius [19] = assay: Phytotoxicity in Corchorus olitorius assessed as root length at 0.99 kg a.i/ha treated to soil after 7 weeks (reference value: 16.9 +/- 0.09 mm); format: organism-based; settings: in vivo, other, 1176 h
Synedrella nodiflora [20] = assay: Herbicidal activity against Synedrella nodiflora in Corchorus olitorius plots assessed as weed recovery at 1.32 kg a.i/ha after 2 weeks (reference value: 78.3 +/- 0.74 %); format: functional
Ageratum conyzoides [21] = assay: Herbicidal activity against Ageratum conyzoides in Corchorus olitorius plots assessed as weed cover at 0.33 kg a.i/ha after 7 weeks (reference value: 1.7 +/- 0.56 %); format: functional
Ageratum conyzoides [22] = assay: Herbicidal activity against Ageratum conyzoides in Corchorus olitorius plots assessed as weed cover at 1.32 kg a.i/ha after 2 weeks (reference value: 81.7 +/- 0.43 %); format: functional
Euphorbia heterophylla [23] = assay: Herbicidal activity against Euphorbia heterophylla in Corchorus olitorius plots assessed as weed cover at 0.66 kg a.i/ha after 2 weeks (reference value: 81.7 +/- 0.43 %); format: functional
Calopogonium mucunoides [24] = assay: Herbicidal activity against Calopogonium mucunoides in Abelmoschus esculentus plots assessed as major weed growth at 0.99 kg a.i/ha after 2 weeks; format: functional
Cyperus rotundus [25] = assay: Herbicidal activity against Cyperus rotundus in Corchorus olitorius plots assessed as weed recovery at 0.66 kg a.i/ha after 2 weeks (reference value: 78.3 +/- 0.74 %); format: functional
[26] = test system: Rottboellia cochinchinensis; assay: Herbicidal activity against Rottboellia cochinchinensis in Corchorus olitorius plots assessed as weed recovery at 0.33 kg a.i/ha after 2 weeks (reference value: 78.3 +/- 0.74 %); format: functional
Euphorbia heterophylla [27] = assay: Herbicidal activity against Euphorbia heterophylla in Corchorus olitorius plots assessed as weed cover at 1.32 kg a.i/ha after 7 weeks (reference value: 1.7 +/- 0.56 %); format: functional
Synedrella nodiflora [28] = assay: Herbicidal activity against Synedrella nodiflora in Corchorus olitorius plots assessed as weed cover at 1.32 kg a.i/ha after 7 weeks (reference value: 1.7 +/- 0.56 %); format: functional
Abelmoschus esculentus [29] = assay: Phytotoxicity in Abelmoschus esculentus assessed as shoot length at 0.99 kg a.i/ha applied as solution after 7 weeks (reference value: 28.7 +/- 0.34 mm); format: organism-based; settings: in vivo, other, 1176 h
Abelmoschus esculentus [30] = assay: Phytotoxicity in Abelmoschus esculentus assessed as shoot length at 0.33 kg a.i/ha applied as solution after 7 weeks (reference value: 28.7 +/- 0.34 mm); format: organism-based; settings: in vivo, other, 1176 h
Asteraceae = assay: Herbicidal activity against Aspilia africana in Corchorus olitorius plots assessed as weed cover at 0.66 kg a.i/ha after 4 weeks (reference value: 20.1+/- 0.57 %); format: functional
Corchorus olitorius [31] = assay: Phytotoxicity in Corchorus olitorius assessed as seedling emergence at 0.66 kg a.i/ha treated to soil after 7 weeks (reference value: 95 +/- 0.05 %); format: organism-based; settings: in vivo, other, 1176 h
Euphorbia heterophylla [32] = assay: Herbicidal activity against Euphorbia heterophylla in Abelmoschus esculentus plots assessed as weed recovery at 0.99 kg a.i/ha after 2 weeks (reference value: 60.1 +/- 0.46 %); format: functional
Calopogonium mucunoides [33] = assay: Herbicidal activity against Calopogonium mucunoides in Corchorus olitorius plots assessed as weed cover at 1.32 kg a.i/ha after 2 weeks (reference value: 81.7 +/- 0.43 %); format: functional

SMILES: CCC(CC)Nc1c([N+](=O)[O-])cc(C)c(C)c1[N+](=O)[O-] [PENDIMETHALIN]
- Activity (Ageratum conyzoides [1]): 36.2%
- Activity (Synedrella nodiflora [2]): 53.8%
- Activity (Talinum fruticosum [3]): 1 /m2
- Activity (Synedrella nodiflora [4]): 1 /m2
- Activity (Synedrella nodiflora [5]): 1 /m2
- Activity (Euphorbia heterophylla [6]): 83.9%
- Activity (Synedrella nodiflora [7]): 83.9%
- Activity (Cyperus rotundus [8]): 90%
- Activity (Euphorbia heterophylla [9]): 45%
- Activity (Ageratum conyzoides [10]): 13.3%
- Activity (Calopogonium mucunoides [11]): 21.7%
- Activity (Talinum fruticosum [12]): 21.7%
- Activity (Corchorus olitorius [13]): 76.7%
- Activity (Chromolaena odorata): 95%
- Activity (Commelina diffusa): 100%
- Activity (Corchorus olitorius [14]): 46.7%
- Activity (Corchorus olitorius [15]): 5.3 mm
- Activity (Corchorus olitorius [16]): 84.7%
- Activity (Corchorus olitorius [17]): 88.7%
- Activity (Corchorus olitorius [18]): 14.7 mm
- Activity (Corchorus olitorius [19]): 16.4 mm
- Activity (Synedrella nodiflora [20]): 13.3%
- Activity (Ageratum conyzoides [21]): 100%
- Activity (Ageratum conyzoides [22]): 41.7%
- Activity (Euphorbia heterophylla [23]): 51.7%
- Activity (Calopogonium mucunoides [24]): 31 /m2
- Activity (Cyperus rotundus [25]): 33.3%
- Activity [26]: 31.7%
- Activity (Euphorbia heterophylla [27]): 95%
- Activity (Synedrella nodiflora [28]): 95%
- Activity (Abelmoschus esculentus [29]): 14.7 mm
- Activity (Abelmoschus esculentus [30]): 14.5 mm
- Activity (Asteraceae): 63.3%
- Activity (Corchorus olitorius [31]): 83.3%
- Activity (Euphorbia heterophylla [32]): 36.2%
- Activity (Calopogonium mucunoides [33]): 41.7%
